According to publication PMC10791743, “Selective CK1α degraders exert antiproliferative activity against a broad range of human cancer cell lines” (Nature Communications, 2024):
Where “and” joins values, the source holds several entries; their conditions need not be identical. Equal entries are not always repeated.

Assays:
[1] = tested on: panel of 9 human cancer cell lines (HD-MB03, MB004, MB002, MHH-CALL4, MOLM-13, TF-1, HEL, OCI-AML3, AML193); experiment: Molecular glue library screening, CellTiter-Glo cell viability, 72 h; type: cell-based; details: CTG, dose-response
Description: We screened our molecular glue library (3630 compounds) against a panel of 9 pediatric cancer cell lines to identify molecules displaying cell-selective sensitivities. In addition to the four cell lines we previously described (MB002, MB004, HD-MB03, and MHHCALL-4)[27], we included five additional AML cell lines (MOLM-13, TF-1, HEL, OCI-AML3, and AML193) to cover a broader range of genetic diversity and cancer vulnerabilities. The library screening was performed in high throughput (384-well plates) by incubating the cells with compounds for 72 h and assessing cell viability via CellTiter-Glo (CTG) in a dose–response manner, as reported previously.
The primary screen was performed in 384-well format using the CellTiter Glo (CTG) luminescent cell viability assay (Promega) as previously described. 3630 compounds from the St. Jude proprietary molecular glue library were screened against 9 human cancer cell lines (HD-MB03, MB004, MB002, MHH-CALL4, MOLM-13, TF-1, HEL, OCI-AML3, AML193). Each cell line was cultured in the complete medium recommended by the vendor and seeded in Corning 8804 BC white 384-well assay plates at densities of 1000, 1000, 1500, 7500, 1250, 156, 625, 1250, 1250 cells per well for HD-MB03, MB004, MB002, MHH-CALL4, MOLM-13, TF-1, HEL, OCI-AML, AML193, respectively. After overnight incubation at 37 °C in a humidified 5% CO2 incubator, cells were treated with compounds in dose–response format using a Pintool on a Biomek FX^P Laboratory Automation Workstation (Beckman Coulter). After 72 h of incubation, cell proliferation was assessed using a CellTiter-Glo (CTG) luminescent cell viability assay (Promega) according to the manufacturer’s instructions. Luminescence signal was measured using an EnVision plate reader (PerkinElmer).

[2] = tested on: MOLM-13 cells; experiment: MOLM-13 cell viability assay (CTG, 72 h); type: cell-based, human; set-up: key to Cell viability in MOLM-13 cells / cell viability, dose-response replicate values: % viability = 100 − % activity, normalized to controls; details: for Cell viability in MOLM-13 cells: Lenalidomide series
Description: The primary screen was performed in 384-well format using the CellTiter Glo (CTG) luminescent cell viability assay (Promega) as previously described. […] After overnight incubation at 37 °C in a humidified 5% CO2 incubator, cells were treated with compounds in dose–response format using a Pintool on a Biomek FX^P Laboratory Automation Workstation (Beckman Coulter). […] Luminescence signal was measured using an EnVision plate reader (PerkinElmer). […]
number per well and incubated overnight at 37 °C in a humidified 5 % CO2 incubator. Compounds were transferred to the assay plate from a dose-response plate using a Labcyte Echo 650 Acoustic Liquid Handler (Beckman Coulter , USA). […]
using Promega’s CellTiter-Glo reagent according to the manufacturer’s recommendation.
Luminescence was measured on the Envision plate reader (PerkinElmer, USA). Raw luminescence relative light unit (RLU) values for each compound at each concentration were normalized to obtain % activity using the following equation (1): 100 × [(mean(negctrl) – compound)/(mean (negctrl) – mean (posctrl))]. The % activity was converted to % viability using the following equation (2):
(100 – % activity), and then pooled from replicate experiments prior to fitting. Here, negctrl and posctrl refer to the negative (DMSO) and positive controls (staurosporine) on each plate. Dose-response curves were fit to the Hill equation using the GraphPad Prism (version 10). […]

`Nc1cccc2c1CN(C1CCC(=O)NC1=O)C2=O` (centres unmarked) [lenalidomide, reference compound] was tested, and the “Cell viability across the panel of AL and MB cell lines” value [1] was “inactive”, the “Effect on MOLM-13 cell viability (cytotoxicity)” value ([2]; CTG 72 h) was “did not show appreciable cytotoxicity” and the “Cell viability in MOLM-13 cells” value ([2]; Conc 0.00055545) was 109.633 and 88.9306 and 94.0401. The “Cell viability in MOLM-13 cells” value ([2]; Conc 0.00166636) was 93.576 and 90.3639 and 96.1559, the “Cell viability in MOLM-13 cells” value ([2]; Conc 0.00499909) was 90.3167 and 93.3429 and 87.1 and the “Cell viability in MOLM-13 cells” value ([2]; Conc 0.0149973) was 104.685 and 79.7406 and 92.7317. The “Cell viability in MOLM-13 cells” value ([2]; Conc 0.0449918) was 87.2291 and 84.4121 and 81.9827, the “Cell viability in MOLM-13 cells” value ([2]; Conc 0.134975) was 84.7339 and 87.0092 and 84.0481 and the “Cell viability in MOLM-13 cells” value ([2]; Conc 0.404926) was 83.6134 and 73.5361 and 80.3173. For the same compound, the “Cell viability in MOLM-13 cells” value ([2]; Conc 1.21478) was 75.0522 and 81.9691 and 77.2827 and the “Cell viability in MOLM-13 cells” value ([2]; Conc 3.64433) was 84.7767 and 72.5751 and 71.171.
